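GI50 marks 50% less growth. TGI: concentration producing complete growth inhibition.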
How the values were obtained:
Assay in all cases: NCI tumour cell line growth inhibition, 384-well format; in the data active means GI50 below about 0.43 µM; inactive means the rest
A498 renal = system: A498 renal
A549 NSCLC = system: A549 NSCLC
ACHN renal = system: ACHN renal
BT-549 breast = system: BT-549 breast
CAKI-1 renal = system: CAKI-1 renal
COLO 205 colon = system: COLO 205 colon
DU-145 prostate = system: DU-145 prostate
EKVX NSCLC = system: EKVX NSCLC
HCC-2998 colon = system: HCC-2998 colon
HCT-116 colon = system: HCT-116 colon
HCT-15 colon = system: HCT-15 colon
HL-60(TB) leukemia = system: HL-60(TB) leukemia
HOP-62 NSCLC = system: HOP-62 NSCLC
HOP-92 NSCLC = system: HOP-92 NSCLC
HS 578T breast = system: HS 578T breast
HT29 colon = system: HT29 colon
IGROV1 ovarian = system: IGROV1 ovarian
KM12 colon = system: KM12 colon
LOX IMVI melanoma = system: LOX IMVI melanoma
M14 melanoma = system: M14 melanoma
MALME-3M melanoma = system: MALME-3M melanoma
MCF7 breast = system: MCF7 breast
MDA-MB-231 breast = system: MDA-MB-231 breast
MDA-MB-435 melanoma = system: MDA-MB-435 melanoma
MDA-MB-468 breast = system: MDA-MB-468 breast
MOLT-4 leukemia = system: MOLT-4 leukemia
NCI-H226 lung = system: NCI-H226 lung
NCI-H23 lung = system: NCI-H23 lung
NCI-H322M lung = system: NCI-H322M lung
NCI-H460 NSCLC = system: NCI-H460 NSCLC
NCI-H522 lung = system: NCI-H522 lung
NCI/ADR-RES ovarian = system: NCI/ADR-RES ovarian
OVCAR-3 ovarian = system: OVCAR-3 ovarian
OVCAR-4 ovarian = system: OVCAR-4 ovarian
OVCAR-5 ovarian = system: OVCAR-5 ovarian
OVCAR-8 ovarian = system: OVCAR-8 ovarian
PC-3 prostate = system: PC-3 prostate
RPMI-8226 leukemia = system: RPMI-8226 leukemia
RXF 393 renal = system: RXF 393 renal
SF-268 CNS = system: SF-268 CNS
SF-295 CNS = system: SF-295 CNS
SF-539 CNS = system: SF-539 CNS
SK-MEL-28 melanoma = system: SK-MEL-28 melanoma
SK-MEL-5 melanoma = system: SK-MEL-5 melanoma
SK-OV-3 ovarian = system: SK-OV-3 ovarian
SN12C renal = system: SN12C renal
SNB-19 CNS = system: SNB-19 CNS
SNB-75 CNS = system: SNB-75 CNS
SR leukemia = system: SR leukemia
T-47D breast = system: T-47D breast
TK-10 renal = system: TK-10 renal
U251 glioblastoma = system: U251 glioblastoma
UACC-257 melanoma = system: UACC-257 melanoma
UACC-62 melanoma = system: UACC-62 melanoma

COc1ccc2c(OCc3nnc4ccc(-c5ccccc5)nn34)ccnc2c1
> 100 µM: TGI (A498 renal) | TGI (A549 NSCLC) | TGI (ACHN renal) | TGI (BT-549 breast) | TGI (CAKI-1 renal) | TGI (COLO 205 colon) | TGI (DU-145 prostate) | TGI (EKVX NSCLC) | TGI (HCC-2998 colon) | TGI (HCT-116 colon) | TGI (HCT-15 colon) | TGI (HL-60(TB) leukemia) | TGI (HOP-62 NSCLC) | TGI (HOP-92 NSCLC) | TGI (HS 578T breast) | TGI (HT29 colon) | TGI (IGROV1 ovarian) | TGI (KM12 colon) | TGI (LOX IMVI melanoma) | TGI (M14 melanoma) | TGI (MALME-3M melanoma) | TGI (MCF7 breast) | TGI (MDA-MB-231 breast) | TGI (MDA-MB-435 melanoma) | TGI (MDA-MB-468 breast) | TGI (MOLT-4 leukemia) | TGI (NCI-H226 lung) | TGI (NCI-H23 lung) | TGI (NCI-H322M lung) | TGI (NCI-H460 NSCLC) | TGI (NCI-H522 lung) | TGI (NCI/ADR-RES ovarian) | TGI (OVCAR-4 ovarian) | TGI (OVCAR-5 ovarian) | TGI (OVCAR-8 ovarian) | TGI (PC-3 prostate) | TGI (RPMI-8226 leukemia) | TGI (RXF 393 renal) | TGI (SF-268 CNS) | TGI (SF-295 CNS) | TGI (SF-539 CNS) | TGI (SK-MEL-28 melanoma) | TGI (SK-MEL-5 melanoma) | TGI (SK-OV-3 ovarian) | TGI (SN12C renal) | TGI (SNB-19 CNS) | TGI (SNB-75 CNS) | TGI (SR leukemia) | TGI (T-47D breast) | TGI (TK-10 renal) | TGI (U251 glioblastoma) | TGI (UACC-257 melanoma) | TGI (UACC-62 melanoma)
94.6 µM: TGI (OVCAR-3 ovarian)
inactive: GI50 (A498 renal) > 100 µM | GI50 (A549 NSCLC) > 100 µM | GI50 (ACHN renal) 42.2 µM | GI50 (BT-549 breast) > 100 µM | GI50 (CAKI-1 renal) > 100 µM | GI50 (COLO 205 colon) > 100 µM | GI50 (DU-145 prostate) > 100 µM | GI50 (EKVX NSCLC) > 100 µM | GI50 (HCC-2998 colon) > 100 µM | GI50 (HCT-116 colon) > 100 µM | GI50 (HCT-15 colon) > 100 µM | GI50 (HL-60(TB) leukemia) > 100 µM | GI50 (HOP-62 NSCLC) 60.5 µM | GI50 (HOP-92 NSCLC) > 100 µM | GI50 (HS 578T breast) > 100 µM | GI50 (HT29 colon) > 100 µM | GI50 (IGROV1 ovarian) > 100 µM | GI50 (KM12 colon) > 100 µM | GI50 (LOX IMVI melanoma) > 100 µM | GI50 (M14 melanoma) > 100 µM | GI50 (MALME-3M melanoma) > 100 µM | GI50 (MCF7 breast) > 100 µM | GI50 (MDA-MB-231 breast) > 100 µM | GI50 (MDA-MB-435 melanoma) > 100 µM | GI50 (MDA-MB-468 breast) > 100 µM | GI50 (MOLT-4 leukemia) > 100 µM | GI50 (NCI-H226 lung) > 100 µM | GI50 (NCI-H23 lung) > 100 µM | GI50 (NCI-H322M lung) > 100 µM | GI50 (NCI-H460 NSCLC) 73.8 µM | GI50 (NCI-H522 lung) 44.6 µM | GI50 (NCI/ADR-RES ovarian) > 100 µM | GI50 (OVCAR-3 ovarian) 29.8 µM | GI50 (OVCAR-4 ovarian) 28.9 µM | GI50 (OVCAR-5 ovarian) > 100 µM | GI50 (OVCAR-8 ovarian) > 100 µM | GI50 (PC-3 prostate) > 100 µM | GI50 (RPMI-8226 leukemia) > 100 µM | GI50 (RXF 393 renal) > 100 µM | GI50 (SF-268 CNS) > 100 µM | GI50 (SF-295 CNS) > 100 µM | GI50 (SF-539 CNS) > 100 µM | GI50 (SK-MEL-28 melanoma) > 100 µM | GI50 (SK-MEL-5 melanoma) > 100 µM | GI50 (SK-OV-3 ovarian) > 100 µM | GI50 (SN12C renal) 63 µM | GI50 (SNB-19 CNS) 50.1 µM | GI50 (SNB-75 CNS) > 100 µM | GI50 (SR leukemia) > 100 µM | GI50 (T-47D breast) > 100 µM | GI50 (TK-10 renal) 48.7 µM | GI50 (U251 glioblastoma) > 100 µM | GI50 (UACC-257 melanoma) > 100 µM | GI50 (UACC-62 melanoma) > 100 µM

Source: PubChem BioAssay (NCI)
